According to EP2487185A1, “Hexapeptide with improved activity in the repair of cellular DNA of dermal cells” (Clinuvel Pharmaceuticals Limited, priority 2011, dated 2012):
Non-standard residues stand in square brackets, D forms with d. Nle = CCCC[C@H](N)C(=O)O

Assays:
[1] = tested on: Melanocytes; assay: DNA damage as measured by cyclobutane pyrimidine dimers (CPD), flow cytometry; format: cell-based, human; details: 48 h after 105 mJ/cm^2 UV; 10 nM α-MSH, 1 nM NDP-MSH or 1 nM CUV9900, 4 days prior to and 2 days after UV
Description: Cyclobutane pyrimidine dimers (CPD), the major determinant of UV induced DNA photoproducts, were detected using flow cytometry analysis.
Melanocytes were pretreated with 0 (control), 10 nM α-MSH or 1 nM NDP-MSH or 1 nM CUV9900 for 4 days prior to, and 2 days after exposure to 105 mJ/cm^2 UV, harvested 48 hours post irradiation, fixated with 70% ethanol, the DNA denatured with 1N HCl/0.2 mg/ml pepsin, then renaturated with sodium tetraborate. Melanocytes were blocked and incubated overnight at 4°C with the anti-CPD antibody (diluted 1:500; TDM-2 clone), then with goat anti-mouse IgG Alexa Fluor 488 (Invitrogen, Carlsbad CA) for 1 hour, and finally resuspended in PBS containing RNase A and propidium iodide. Melanocytes were analyzed on a Coulter EPICS XL flow cytometer (Beckman Coulter) using a 488nm argon ion laser A 525 band pass filter was used for the Alexa fluor 488 and a 620 band pass filter for the propidium iodide.

[2] = tested on: human melanocytes; assay: DNA damage as measured by 8-oxo-dG (FITC-conjugated 8-oxo-dG antibody immunofluorescence); format: cell-based; details: for 8-oxo-dG, Arbitrary units: 37 Celsius, mean fluorescence intensity
Source text: DNA damage of cultured melanocytes following UV irradiation leads to consistent levels of photoproducts such as 8-oxo-dG. It is well established in the art (dermal carcinogenesis) that 8-oxodG is a major form of UV induced oxidative DNA damage, which results from the generation of reactive oxygen species (ROS). The induction of 8-oxodG by 8-oxo-dGTP can be inhibited by pyrophosphohydrolases (8-[…]) that convert it to 8-oxo-dGMP. To elucidate the involvement of 8-oxo-[…] in carcinogenesis, an assay of the 8-oxo-[…] activity was used (Sigma Chemical Co. (USA) as well as a conjugated 8-oxo-dG antibodies (OxoDNA Assay Kit; Calbiochem/EMD Biosciences). Melanocytes were plated onto coverslips, and treated 48 h thereafter for 4 days prior to, and immediately after irradiation with 0 or 105 mJ/cm^2 UV, 0.1-10.0 nM α-MSH, with 0 (control) or 0.1-10.0 nM α-MSH, or 0.001-10 nM NDP-MSH or 0.001-10.0 nM CUV 9900. Two hours after UV exposure, cells were fixated with 4% paraformaldehyde in PBS, hydrated in increasing concentrations of cold methanol, and permeabilized in 99% methanol for 30 min at 4 °C. Melanocytes were incubated in blocking solution at 37 °C for 1 h and then with FITC-conjugated 8-oxo-dG antibody, or mouse IgG as a negative control, at 37 °C for 1 h. The IgG controls were then incubated with FITC-conjugated anti-mouse antibody. Immunofluorescence was detected using a microscope with FITC filters. Data were expressed as the mean fluorescence intensity ±S.E., determined using the densitometry values from 6-8 randomly obtained images, using the computer assisted program Alpha Inotech Imaging System and the AlphaEase FC StandAlone Software.

[3] = tested on: melanocyte strain 1513c; assay: Tyrosinase activity as a measure of stability / residual effect; format: cell-based, human; details: for Tyrosinase activity, column 3: 4 days after peptide removal
Description: To determine the residual effect of CUV9900, as compared to NDP-MSH and α-MSH, on tyrosinase activity, melanocytes were treated with either CUV9900 or NDP-MSH at the concentrations previously described for a total of 3 days. Tyrosinase activity was measured at the end of the 3 days of treatment, and 2 and 4 days after maintenance of the melanocytes in the complete absence of any treatment. With continued reference to Figs. 7, 8 and 9, to determine the stability of CUV9900 versus that of NDP-MSH and α-MSH, melanocytes were treated with 1 nM of each peptide, namely with CUV9900, NDP-MSH and α-MSH, for a total of 6 days, or with 1 nM peptides that were incubated for 5 hours at 37 °C prior to addition to the cultures, every other day, for a total of 6 days. Tyrosinase activity was measured at the end of treatment. In the experiments, cell number represents the mean percent of control of 3 determinations/ group ±SE, and tyrosinase activity data represent the mean percent of control of 6 determinations ±S.E. It should be noted that for the sake of reproducibility the experiment of strain 1513c of Fig. 9 was performed once more 6 months later than the experiment of Fig. 7. […] Melanocytes were treated for 3 days with the designated concentrations of CUV9900, NDP-MSH, or MSH, then maintained in absence of peptides for 4 days. Tyrosinase activity was determined 3 days after treatment. Comparison of stability of CUV9900, NDP-MSH and MSH was compared in 1513c, as shown in Fig. 7; the strain was treated for 6 days with 1 nM CUV9900, NDP-MSH or MSH with fresh medium and peptide replenished every 2 days. Melanocytes were treated according to the same experiment protocol but each peptide was incubated for 5-7 hours at 37 degrees Celsius. […] The assessment of tyrosinase was statistically different from control, as determined by ANOVA (p=<0.05).

[4] = tested on: melanocyte strain 1505b; assay: as above; format: cell-based, human; details: for Tyrosinase activity, column 1 / Tyrosinase activity, column 2 / Tyrosinase activity, column 3 / Tyrosinase activity, Mean: STRAIN 1505b; for Tyrosinase activity, column 1: Table 6 (Fig. 8), after 3 days of treatment; for Tyrosinase activity, column 1 / Tyrosinase activity, column 2 / Tyrosinase activity, column 3: 1nM; for Tyrosinase activity, column 2 / Tyrosinase activity, column 3 / Tyrosinase activity, Mean: Table 6; for Tyrosinase activity, column 2: column 2, not defined; for Tyrosinase activity, column 3: column 3, apparently 4 days after peptide removal; for Tyrosinase activity, Mean: mean of columns 1-3
Description: To determine the residual effect of CUV9900, as compared to NDP-MSH and α-MSH, on tyrosinase activity, melanocytes were treated with either CUV9900 or NDP-MSH at the concentrations previously described for a total of 3 days. Tyrosinase activity was measured at the end of the 3 days of treatment, and 2 and 4 days after maintenance of the melanocytes in the complete absence of any treatment.
With continued reference to Figs. 7, 8 and 9, to determine the stability of CUV9900 versus that of NDP-MSH and α-MSH, melanocytes were treated with 1 nM of each peptide, namely with CUV9900, NDP-MSH and α-MSH, for a total of 6 days, or with 1 nM peptides that were incubated for 5 hours at 37 °C prior to addition to the cultures, every other day, for a total of 6 days. Tyrosinase activity was measured at the end of treatment. In the experiments, cell number represents the mean percent of control of 3 determinations/ group ±SE, and tyrosinase activity data represent the mean percent of control of 6 determinations ±S.E. It should be noted that for the sake of reproducibility the experiment of strain 1513c of Fig. 9 was performed once more 6 months later than the experiment of Fig. 7.
Melanocytes were treated for 3 days with the designated concentrations of CUV9900, NDP-MSH, or MSH, then maintained in absence of peptides for 4 days. Tyrosinase activity was determined 3 days after treatment.

[5] = 75%UVB 25% UVA, 105 mJ/cm^2, 2 h after UV
[6] = STRAIN 1513c [1], Table 4 (Fig. 7), 1nM, after 3 days of treatment
[7] = STRAIN 1513c [1], Table 4, 1nM, column 2, apparently 2 days after removal of peptides
[8] = STRAIN 1513c [2], Table 5 (Fig. 9), 1 nM, 6 days, fresh peptide
[9] = STRAIN 1513c [2], Table 5, 1 nM, 6 days, peptide incubated 5-7 hours at 37 degrees Celsius
[10] = over the 2 experiments in strain 1513c

Row | Tyrosinase activity, column 1 [3, 6] | Tyrosinase activity, column 3 ([3]; STRAIN 1513c [1], Table 4, 1nM) | Tyrosinase activity, column 2 [3, 7] | Tyrosinase activity, column 1 [3, 8] | Tyrosinase activity, column 2 [3, 9] | Tyrosinase activity, Mean ([3]; STRAIN 1513c [2], Table 5) | superior stability over MSH (tyrosinase activity) [3, 10] | superior stability over NDP (tyrosinase activity) [3, 10] | Tyrosinase activity, column 1 [4] | Tyrosinase activity, column 2 [4] | Tyrosinase activity, column 3 [4] | Tyrosinase activity, Mean [4] | effect on tyrosinase activity after 3 days of treatment ([4]; strain 1505b, 0.1 nM CUV9900, 1 nM MSH) | residual effects 4 days after peptide removal, comparison with MSH ([4]; strain 1505b, 0.1 nM CUV9900 vs 1 nM MSH) | Substance | Absolute values of CPD products (CPD median fluorescence intensity) [1] | less damage than UV alone (8-oxo-dG) [2] | 8-oxo-dG, Arbitrary units [2, 5] | 8-oxo-dG, Arbitrary units ([2]; Source None (no UV irradiation)) | effect of incubation of the peptide on stimulation of tyrosinase activity ([3]; strain 1513c, 1 nM peptide incubated 5-7 hours at 37 degrees Celsius)
1 | 284 % of control | 160 % of control | 203 % of control | 385.1 % of control | 388.7 % of control | 386.9 % of control | 55.3% | 15.7% | 259 % of control | 199 % of control | 126 % of control | 194.7 % of control | 259 % of control | equal | Ac-Nle-Glu His-D-Phe-Arg-Trp-NH2 (Ac-[Nle]EH[dF]RW-NH2; SMILES CCCC[C@H](NC(C)=O)C(=O)N[C@@H](CCC(=O)O)C(=O)N[C@@H](Cc1c[nH]cn1)C(=O)N[C@H](Cc1ccccc1)C(=O)N[C@@H](CCCNC(=N)N)C(=O)N[C@@H](Cc1c[nH]c2ccccc12)C(N)=O) [CUV9900, hexapeptide, alpha-MSH analogue] | ~11.55 | 120% | 38 a.u. | 30 a.u. | no effect on its ability to stimulate tyrosinase activity
2 | 302 % of control | 164 % of control | 203 % of control | 329.9 % of control | 229.2 % of control | 279.6 % of control |  |  | 175 % of control | 155 % of control | 115 % of control | 148.3 % of control |  |  | Ac-Ser-Tyr-Ser-Nle-Glu-His-D-Phe-Arg-Trp-Gly-Lys-Pro-Val-NH2 [NDP-MSH, reference compound] | ~12.5 |  | 39-40 a.u. |  | 
